Literature values, collected in US8354043B2, “Natural gas odorization” (Enersol Inc., N.A.L.P., priority 2008, dated 2013).
Where a name gives a salt, the structure may show the parent alone.

Details: 20° C. and 1 atm

| Compound | Pvap @ 20° C. (vapor pressure) |
| --- | --- |
| CC(=O)CCC(C)=O [Compound 27, 2,5-Hexanedione] | 0.01 psi |
| CC(C)OC=O [Compound 49, Isopropyl formate] | 2.67 psi |
| CC=CC=O [Compound 43, 2-Butenal] | 0.58 psi |
| O=C1CCCO1 [Compound 17, γ-Butyrolactone] | 0.03 psi |
| CC(=O)C=O [Compound 42, 2-Oxo-propanal] | 0.52 psi |
| O=CC1CCCCC1 [Compound 34, Cyclohexanal] | 0.05 psi |
| CC(=O)CC(C)=O [Compound 25, Aceylacetone] | 0.13 psi |
| CCCOC=O [Compound 48, Propyl formate] | 1.60 psi |
| CCCC(=O)C(C)=O [Compound 24, 2,3-Hexanedione] | 0.19 psi |
| O=CC1CCCC1 [Compound 36, Cyclopentaldehyde] | 0.17 psi |

Same assay, conditions: 25° C. and 1 atm

| Compound | Pvap @ 25° C. (vapor pressure) |
| --- | --- |
| CC(=O)CCC(C)=O [Compound 27, 2,5-Hexanedione] | 0.06 psi |
| O=C1CC=CO1 [Compound 15, 2(3H)-Furanone] | 0.02 psi |
| O=CC=O [Compound 38, Ethanedial] | 4.93 psi |
| CC(=O)C1=CCCCC1 [Compound 13, 1-(1-Cyclohexen-1-yl)-ethanone] | 0.003 psi |
| O=C1C=CCCC1 [Compound 9, 2-Cyclohex-2-en-1-one] | 0.07 psi |
| CCOC=O [Compound 47, Ethyl formate] | 4.74 psi |
| O=C1CCCCC1 [Compound 11, Cyclohexanone] | 0.08 psi |
| 3-Cyclohex-1-one [Compound 10] | 0.04 psi |
| CC(=O)C1CCCCC1 [Compound 12, Cyclohexyl methyl ketone] | .02 psi |
| CCC(=O)C(C)=O [Compound 23, 2,3-Petanedione] | 0.60 psi |
| C=CC(=O)CC [Compound 29, Ethyl vinyl ketone] | 0.74 psi |
| O=C1CCCO1 [Compound 17, γ-Butyrolactone] | 0.01 psi |
| O=C1C=CCC1 [Compound 18, 2-Cyclopenten-1-one] | 0.18 psi |
| O=c1ccocc1 [Compound 2, 4-Pyrone] | 0.004 psi |
| CC(=O)CC(C)=O [Compound 25, Aceylacetone] | 0.06 psi |
| CCC(=O)CC(C)=O [Compound 26, 2,4-Hexandione] | 0.06 psi |
| CCCC(=O)C(C)=O [Compound 24, 2,3-Hexanedione] | 0.06 psi |
| C=CC(C)=O [Compound 28, Methyl vinyl ketone] | 2.94 psi |
| CC(=O)C1CCCC1 [Compound 21, 1-Cyclopentyl-ethanone] | 0.07 psi |
| O=CCC=O [Compound 39, Malondialdehyde] | 0.09 psi |
| O=CCCCC=O [Compound 41, Pentane-1,5-dial] | 0.01 psi |
